Data taken from patent US20070208040A1, “A2A ADENOSINE RECEPTOR ANTAGONISTS” (priority 2006, published 2007).

Each molecule was assayed against A2A adenosine receptor (UniProt P29274) (assay: A2A radioligand binding assay (displacement of 3H-MSX-2)). Conditions: displacement of 2 nM 3H-MSX-2 from 15 ug A2A membrane, 23° C., 2 hours.
Parameters: species or system human
Excerpt: A tritiated adenosine A2A antagonist, 3-(3-hydroxypropyl)-7-methyl-8-(m-methoxystyryl)-1-propargylxanthine, (3H-MSX-2, specific activity: 80 Ci/mmol), was purchased from American Radiolabeled Chemicals, Inc (St. Louis, Mo.). A tritiated adenosine A1 antagonist, 1,3-Dipropyl-8-cyclopentylxanthine ([^3H]DPCPX, specific activity: 120 Ci/mmol) was purchased from Perkin Elmer (Boston, Mass.). A tritiated adenosine A2a antagonist, 4-(2-[7-amino-2-(2-furyl)[1,2,4]triazolo[2,3-a][1,3,5]triazin-5-ylamino]ethyl)phenol ([^3H]ZM241385 specific activity: 27.4 Ci/mmol) was purchased from American Radiolabeled Chemicals, Inc (St. Louis, Mo.). Adenosine Deaminase (ADA) was purchased from Roche Molecular Biochemicals (Nutley, N.J.). GTP was purchased from Sigma. Concentrated stock solution (10 mM) of compounds was dissolved in dimethylsulfoxide (DMSO), stored at −20° C., and diluted in Tris-EDTA buffer (50 mM Tris and 1 mM EDTA, 10 mM MgCl2, pH 7.4) for use in experiments. The final content of dimethylsulfoxide in Tris-EDTA buffer during experiments was not more than 1%. Male Sprague Dawley rats, weighted 250-400 g, 8-10 weeks old, were purchased from Charles River Labs (Wilmington, Mass.).
HEK293 (Human Embryonic Kidney 293) cells stably expressing human A2A adenosine receptor or human A2B adenosine receptor were maintained in DMEM supplemented with 10% fetal bovine serum, 2 mM L-glutamine, 100 IU/ml penicillin, 50 μg/ml streptomycin and 2 μg/ml puromycin. CHO (Chinese Hamster Ovary) cells stably expressing human A1 adenosine receptor or human A3 adenosine receptor were maintained in F12K medium supplemented with 10% fetal bovine serum, 2 mM L-glutamine, 100 IU penicillin, 50 μg streptomycin and 8 μg/ml puromycin. PC12 (rat pheochromocytoma) cells were cultured in F12K medium supplemented with 10% horse serum and 2.5% fetal bovine serum, 2 mM L-glutamine, 100 IU/ml penicillin, and 50 μg/ml streptomycin. All cells were maintained at 37° C. in a humidified 5% CO2/95% air incubator and recultivated 2 times per week.
Cultured cells in 150 mm^2 dishes were washed once with PBS, detached by scrapping, collected with buffer A (10 mM HEPES, 10 mM EDTA, pH 7.4) containing protease inhibitor cocktail. Cells were then homogenized by a handheld homogenizer at a speed of 4.5 for 1 min. The homogenate was centrifuged by a Beckman ultracentrifuge at a speed of 29,000 × g for 15 min. The pellets were resuspended in buffer HE (10 mM HEPES, 1 mM EDTA, pH 7.4, with protease inhibitor cocktail), centrifuged again at 29,000 × g for 15 min. The crude membrane was resuspended using buffer HE, and protein concentration was measured by the method of Lowery with BSA as standard. Similar procedures were used for membrane preparation for fresh rat tissues. All experimental procedures were done at 4° C. Membranes were aliquot and kept at −80° C.
The binding assays utilized 15 ug of A2A membrane (human recombinant A2A membrane, rat striatal membrane, or PC 12 cell membrane) that had been treated with adenosine deaminase and 50 mM Tris-EDTA buffer (pH=7.4) followed by mixing 2 μL of serially diluted DMSO stock solution of the compounds of this invention at concentrations ranging from 10 μM to 0.1 nM or the control received 2 μL of DMSO alone, then the tritiated antagonist 3-(3-hydroxypropyl)-7-methyl-8-(m-methoxystyryl)-1-propargylxanthine (^3H-MSX-2) in Tris-EDTA buffer (50 mM Tris, 1 mM EDTA, 10 mM MgCl2, pH of 7.4) was added to achieve a final concentration of 2 nM. After incubation at 23° C. for 2 hours, the solutions were filtered using a membrane harvester with multiple washing of the membranes (3×). The filter plates were counted in scintillation cocktail affording the amount of displacement ^3H-MSX-2 by the competitive binding compositions of this invention. Radioligand binding data was analyzed using GraphPad Prism version 4.0 (San Diego, Calif.). […]

In order of rising Ki:
1. C#CCn1c(=O)c2c(C)c(C(=O)OCC)sc2n(C)c1=O [XXVI, ethyl 1,5-dimethyl-2,4-dioxo-3-prop-2-ynyl-1,3-dihydrothiopheno[2,3-d]pyrimidine-6-carboxylate]  49 nM
2. Cc1c(-c2ncco2)sc2[nH]c(=O)n(CC(C)C)c(=O)c12 [XXIX, 5-methyl-3-(2-methylpropyl)-6-(1,3-oxazol-2-yl)-1,3-dihydrothiopheno[2,3-d]pyrimidine-2,4-dione]  75 nM
3. Cc1c(-c2cocn2)sc2[nH]c(=O)n(CC(C)C)c(=O)c12 [XXIII, 5-methyl-3-(2-methylpropyl)-6-(1,3-oxazol-4-yl)-1,3-dihydrothiopheno[2,3-d]pyrimidine-2,4-dione]  96 nM
4. CCn1c(=O)[nH]c2sc(-c3sccc3C)c(C)c2c1=O [XXXII, 3-ethyl-5-methyl-6-(3-methyl(2-thienyl))-1,3-dihydrothiopheno[2,3-d]pyrimidine-2,4-dione]  110 nM
5. Cc1c(-c2ccco2)sc2[nH]c(=O)n(C)c(=O)c12 [XXXIV, 6-(2-furyl)-3,5-dimethyl-1,3-dihydrothiopheno[2,3-d]pyrimidine-2,4-dione]  110 nM
6. CCn1c(=O)[nH]c2sc(-c3ccccn3)c(C)c2c1=O [XXXVIII, 3-ethyl-5-methyl-6-(2-pyridyl)-1,3-dihydrothiopheno[2,3-d]pyrimidine-2,4-dione]  120 nM
7. Cc1c(C2=NCCO2)sc2[nH]c(=O)n(CC(C)C)c(=O)c12 [XXVIII, 5-methyl-3-(2-methylpropyl)-6-(1,3-oxazolin-2-yl)-1,3-dihydrothiopheno[2,3-d]pyrimidine-2,4-dione]  137 nM
8. CCn1c(=O)[nH]c2sc(-c3cc(C)cs3)c(C)c2c1=O [XXXI, 3-ethyl-5-methyl-6-(4-methyl(2-thienyl))-1,3-dihydrothiopheno[2,3-d]pyrimidine-2,4-dione]  150 nM
9. Cc1c(-c2cccs2)sc2[nH]c(=O)n(C)c(=O)c12 [XXXIII, 3,5-dimethyl-6-(2-thienyl)-1,3-dihydrothiopheno[2,3-d]pyrimidine-2,4-dione]  150 nM
10. Cc1c(-c2ccoc2)sc2[nH]c(=O)n(CC(C)C)c(=O)c12 [XXX, 6-(3-furyl)-5-methyl-3-(2-methylpropyl)-1,3-dihydrothiopheno[2,3-d]pyrimidine-2,4-dione]  158 nM
11. Cc1c(-c2cocn2)sc2c1c(=O)n(CC(C)C)c(=O)n2C [XXIV, 1,5-dimethyl-3-(2-propylmethyl)-6-(1,3-oxazol-4-yl)-1,3-dihydrothiopheno[1,3-d]pyrimidine-2,4-dione]  165 nM
12. CCn1c(=O)[nH]c2sc(-c3nccs3)c(C)c2c1=O [XXXVII, 3-ethyl-5-methyl-6-(1,3-thiazol-2-yl)-1,3-dihydrothiopheno[2,3-d]pyrimidine-2,4-dione]  167 nM
13. Cc1c(-c2ccco2)sc2[nH]c(=O)n(CC3CC3)c(=O)c12 [XXXVI, 3-(cyclopropylmethyl)-5-methyl-6-(2-furyl)-1,3-dihydrothiopheno[2,3-d]pyrimidine-2,4-dione]  170 nM
14. CCn1c(=O)[nH]c2sc(-c3ccc[nH]3)c(C)c2c1=O [XXVII, 3-ethyl-5-methyl-6-pyrrol-2-yl-1,3-dihydrothiopheno[2,3-d]pyrimidine-2,4-dione]  180 nM
15. Cc1c(-c2cccs2)sc2[nH]c(=O)n(CC3CC3)c(=O)c12 [XXXV, 3-(cyclopropylmethyl)-5-methyl-6-(2-thienyl)-1,3-dihydrothiopheno[2,3-d]pyrimidine-2,4-dione]  195 nM
16. CCn1c(=O)c2c(C)c(-c3nccs3)sc2n(C)c1=O [XLVIII, 3-ethyl-1,5-dimethyl-6-(1,3-thiazol-2-yl)-1,3-dihydrothiopheno[2,3-d]pyrimidine-2,4-dione]  199 nM
17. CCn1c(=O)[nH]c2scc(-c3ccc(C)o3)c2c1=O [XXI, 3-ethyl-5-(5-methyl(2-furyl))-1,3-dihydrothiopheno[2,3-d]pyrimidine-2,4-dione]  230 nM
18. CCn1c(=O)c2c(C)c(-c3ccco3)sc2n(C)c1=O [XXXIX, 3-ethyl-6-(2-furyl)-1,5-dimethyl-1,3-dihydrothiopheno[2,3-d]pyrimidine-2,4-dione]  250 nM
19. C#CCn1c(=O)[nH]c2sc(C(=O)OCC)c(C)c2c1=O [XXV, ethyl 5-methyl-2,4-dioxo-3-prop-2-ynyl-1,3-dihydrothiopheno[2,3-d]pyrimidine-6-carboxylate]  300 nM
20. CCn1c(=O)c2c(C)c(-c3cc(C)cs3)sc2n(C)c1=O [XLVII, 3-ethyl-1,5-dimethyl-6-(4-methyl(2-thienyl))-1,3-dihydrothiopheno[2,3-d]pyrimidine-2,4-dione]  524 nM
21. CCn1c(=O)[nH]c2sc(C(=O)NC)c(C)c2c1=O [XV, (3-ethyl-5-methyl-2,4-dioxo(1,3-dihydrothiopheno[2,3-d]pyrimidin-6-yl))-n-methylcarboxamide]  676 nM
22. CCn1c(=O)[nH]c2sc(C)c(C)c2c1=O [XVI, 3-ethyl-5,6-dimethyl-1,3-dihydrothiopheno[2,3-d]pyrimidine-2,4-dione]  699 nM
23. CCOC(=O)c1sc2[nH]c(=O)n(C)c(=O)c2c1C [XVII, ethyl 3,5-dimethyl-2,4-dioxo-1,3-dihydrothiopheno[2,3-d]pyrimidine-6-carboxylate]  715 nM
24. CCn1c(=O)[nH]c2sc(-c3cnn(Cc4ccccc4)c3)c(C)c2c1=O [XVIII, 3-ethyl-5-methyl-6-[1-benzylpyrazol-4-yl]-1,3-dihydrothiopheno[2,3-d]pyrimidine-2,4-dione]  752 nM
25. CCn1c(=O)[nH]c2sc(-c3nc(Cc4ccccc4)no3)c(C)c2c1=O [XX, 3-ethyl-5-methyl-6-[3-benzyl(1,2,4-oxadiazol-5-yl)]-1,3-dihydrothiopheno[2,3-d]pyrimidine-2,4-dione]  805 nM
26. CCn1c(=O)c2c(-c3ccc(C)o3)csc2n(C)c1=O [XXII, 3-ethyl-1-methyl-5-(5-methyl(2-furyl))-1,3-dihydrothiopheno[2,3-d]pyrimidine-2,4-dione]  896 nM
